The record followed here is US20260083122A1, “METHOD AND AGENT FOR INACTIVATING BACTERIA OR VIRUSES, AND ANTIVIRAL BASE MATERIAL USING SAME” (NISSAN MOTOR CO., LTD., priority 2022, published 2026).

Series [1] deals with T1, S-RBD-His(WT) (SARS-CoV-2 Spike Protein (RBD)) (Severe acute respiratory syndrome coronavirus 2, UniProt P0DTC2).
Series [2] deals with feline coronavirus (FCov (VR-989)). The class given is cell-based. The conditions noted are these: FCoV dilution series incubated with compound at room temperature for 2 hours; CRFK cells, 2 days culture.
Series [3] shares this test system. Briefly: Antiviral effect of AZADO (CPE method; incubation at 37° C.). It is filed as cell-based.
For series [4] the test system is unchanged. It is filed as cell-based. The conditions noted are these: for Positive rate (CPE) / Number of wells when CPE is positive: 3 days culture.
The test system is the same in series [5]. Nature of the series: Cell viability by WST-8 method in the 25° C. incubation experiment. It is filed as cell-based. The conditions noted are these: cells cultured for 3 days after sample addition and medium replacement; virus alone about 50%. Background: Formazan colour is commonly taken as a measure of viable cells.
The next series deals with T2, ovalbumin (OVA) (Gallus gallus, UniProt P01012).
T2 sequence (P01012 1-386): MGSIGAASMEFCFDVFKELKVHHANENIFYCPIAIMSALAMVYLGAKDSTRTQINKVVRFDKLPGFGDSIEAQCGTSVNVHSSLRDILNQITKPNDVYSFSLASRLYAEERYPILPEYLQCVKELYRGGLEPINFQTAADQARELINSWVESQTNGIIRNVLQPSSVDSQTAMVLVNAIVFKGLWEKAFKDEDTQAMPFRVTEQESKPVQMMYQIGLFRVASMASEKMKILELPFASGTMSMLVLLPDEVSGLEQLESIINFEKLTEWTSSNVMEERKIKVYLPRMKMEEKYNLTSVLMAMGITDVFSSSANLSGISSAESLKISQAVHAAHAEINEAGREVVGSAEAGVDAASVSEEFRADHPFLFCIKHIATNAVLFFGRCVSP
Nature of the series: Degradation activity on ovalbumin (electrophoresis, CBB staining). It is filed as biochemical. The conditions noted are these: room temperature for 24 hours.

For series [6], the system named is Escherichia coli (DH5a strain; AMP+). Briefly: Measurement of minimum inhibitory concentration (MIC) against Escherichia coli (colony count). The class given is cell-based. As to conditions: for CFU relative value: Comparative Example (0 mM) is 100. As for the experimental part: First, Escherichia coli (DH5a strain; AMP+) was cultured with shaking in LB medium for 20 hours, and the obtained culture solution was used as an Escherichia coli stock solution. Then, the Escherichia coli stock solution was diluted 1000 times with PBS to obtain a diluted solution. In addition, this diluted solution was used as a comparative example.
On the other hand, AZADO^+NO3^− was added to the diluted solution obtained above to have a final concentration of 1 μM, 10 μM, 100 μM, 1 mM, or 10 mM, respectively, and the obtained mixture was allowed to stand at room temperature for 15 minutes. Thereafter, for the purpose of deactivating AZADO^+NO3^−, the diluted solution was further diluted 10 times using LB medium as a reaction stop solution. Finally, 25 μL of the reaction solution obtained in this manner was applied to LB agar medium, and cultured at 37° C. for 1 day. Then, the number of colonies on the agar medium after culture was counted, and the colony forming unit (CFU/mL) per mL was calculated. In addition, the “CFU relative value” described in Table 3 is a relative value when the value of the colony forming unit of Comparative Example is 100.

The target of series [7] is T1, S-RBD-His(WT) (SARS-CoV-2 Spike Protein (RBD)). The source holds these as a separate data set.
Series [8] in a line: Standard redox potential by cyclic voltammetry. It is filed as physicochemical. As to conditions: reference electrode Ag/Ag^+, sweep rate 50 mV/s. Here is the method:
The standard redox potential is measured by cyclic voltammetry (CV) under a temperature condition of 25° C. At this time, the measurement is performed by a three-electrode method using a glassy carbon electrode (inner diameter: 3 mm) as a working electrode, a reference electrode (Ag/Ag^+), and a counter electrode (platinum wire), and the sweep rate of the potential is 50 mV/s. It is noted that the hydroxyamine forms of the compounds of the present invention are generally unstable and rapidly oxidized into nitroxyl radical forms. Thus, the value of the standard redox potential measured by the above method is the value between the nitroxyl radical form and the oxoammonium form.
In the cyclic voltammogram shown in FIG. 1, the cyclic voltammogram was stably maintained even after repeating 100 or more cycles of measurement, and thus it is observed that the compound of the present aspect has very high durability as an oxidizing agent.

For series [9], the system named is Escherichia coli ATCC 43895, serotype 0157:H7.
The subject of series [10] is Staphylococcus aureus subsp. aureus NBRC 12732.
Series [11] relates to Penicillium citrinum (NBRC 6352).

Where two headings read alike, the source gives them in different places. Bounds are passed on as bounds.

Take `CC(=O)NC1CC(C)(C)[N+](=O)C(C)(C)C1.F[B-](F)(F)F` [4-AcNH-TEMPO^+BF4^−]: in series [1], the “activity compared among the compounds (peak shift, MFI)” value is listed as “almost equally strong” and the “antiviral activity (MFI) on extended treatment time” value is given as “showed higher antiviral activity”.
Taken in the same sequence, the figures for `F[B-](F)(F)F.O=[N+]1C2CC3CC(C2)CC1C3` [AZADO^+BF4^−] were “almost equally strong” and “showed higher antiviral activity”.
With `O=[N+]([O-])[O-].O=[N+]1C2CC3CC(C2)CC1C3` [AZADO-Oxo], the “cell viability (WST-8 method)” value is listed as “recovery of cell viability decreased by virus addition was observed” in series [2] and “recovered the cell viability to the same level as the blank” in series [5]. Besides, the logTCID50 in [3] (AZADO-Oxo 2 mM added, 37° C. 2 hours (no AZADO-Oxo: 5.2)) is recorded as 2.4; in [4] (AZADO-Oxo added, 25° C. incubation (no AZADO-Oxo: 5.2)) it was 2.4. Further, the TCID50 was determined as 253 in [3] (AZADO-Oxo 2 mM added, 37° C. 2 hours (no AZADO-Oxo: 142262)) and 253 in series [4] (AZADO-Oxo added, 25° C. incubation (no AZADO-Oxo: 142262)). In [3] (AZADO-Oxo 2 mM, 37° C. 2 hours), the “viral load reduced to (fraction)” value is recorded as “about 1/1000”. Moreover, the “Δ log TCID50” value in [3] (AZADO-Oxo 2 mM, 37° C. 2 hours, 5.2-2.4) stood at 2.8. Further, the “Positive rate (CPE)” value in series [3] (AZADO-Oxo 2 mM, 37° C. 2 hours, viral load 10^−1) is on record as 0%; in series [3] (AZADO-Oxo 2 mM, 37° C. 2 hours, viral load 10^−2), 0%; in [3] (AZADO-Oxo 2 mM, 37° C. 2 hours, viral load 10^−3) it was 0%; in series [3] (AZADO-Oxo 2 mM, 37° C. 2 hours, viral load 10^−4), 0%; in [3] (AZADO-Oxo 2 mM, 37° C. 2 hours, viral load 10^−5), 0%; in [3] (AZADO-Oxo 2 mM, 37° C. 2 hours, viral load (relative value) 1) it was 0%. For the same compound, the “Positive rate (CPE)” value is 0% in [4] (AZADO-Oxo added, 25° C. incubation, viral load 10^−1); 0% in series [4] (AZADO-Oxo added, 25° C. incubation, viral load 10^−2); 0% in series [4] (AZADO-Oxo added, 25° C. incubation, viral load 10^−3); 0% in series [4] (AZADO-Oxo added, 25° C. incubation, viral load 10^−4); 0% in [4] (AZADO-Oxo added, 25° C. incubation, viral load 10^−5); 0% in [4] (AZADO-Oxo added, 25° C. incubation, viral load (relative value) 1). The “Number of wells when CPE is positive” value worked out at 0 in series [3] (AZADO-Oxo 2 mM, 37° C. 2 hours, viral load 10^−1, 8 wells); 0 in series [3] (AZADO-Oxo 2 mM, 37° C. 2 hours, viral load 10^−2, 8 wells); 0 in series [3] (AZADO-Oxo 2 mM, 37° C. 2 hours, viral load 10^−3, 8 wells); 0 in series [3] (AZADO-Oxo 2 mM, 37° C. 2 hours, viral load 10^−4, 8 wells); 0 in series [3] (AZADO-Oxo 2 mM, 37° C. 2 hours, viral load 10^−5, 7 wells); 0 in [3] (AZADO-Oxo 2 mM, 37° C. 2 hours, viral load (relative value) 1, 7 wells). Moreover, the “Number of wells when CPE is positive” value in series [4] (AZADO-Oxo added, 25° C. incubation, viral load 10^−1, 8 wells) is given as 0; in series [4] (AZADO-Oxo added, 25° C. incubation, viral load 10^−2, 8 wells), 0; in [4] (AZADO-Oxo added, 25° C. incubation, viral load 10^−3, 8 wells) it was 0; in [4] (AZADO-Oxo added, 25° C. incubation, viral load 10^−4, 8 wells) it was 0; in series [4] (AZADO-Oxo added, 25° C. incubation, viral load 10^−5, 7 wells), 0; in series [4] (AZADO-Oxo added, 25° C. incubation, viral load (relative value) 1, 7 wells), 0. The “change of cell form to a round shape by virus (microscope)” value in series [4] (48 hours after the addition of the sample solution, 25° C. incubation) is “this form change is suppressed”. Besides, the “band of OVA in supernatant (CBB staining)” value on ovalbumin (OVA) (1 mg catalyst support or 3 μL of 100 mM AZADO-Oxo) was “almost eliminated”. Also, the “band of OVA in supernatant (CBB staining), unsupported AZADO” value on ovalbumin (OVA) (2.5 μL of 100 mM AZADO-Oxo, with or without 2.5 μL of 100 mM cocatalyst) is listed as “elimination of a band of OVA (protein degradation activity) was confirmed”. The “final concentration at which a remarkable inactivation effect was observed” value in series [6] (Escherichia coli, 15 minutes contact) was not below 100 PM. In addition, the colony forming unit was 1.28 × 10^8 CFU/mL in [6] (final concentration 0.001 mM (0 mM: 1.21 × 10^8)); 1.25 × 10^8 CFU/mL in series [6] (final concentration 0.01 mM); 6.04 × 10^7 CFU/mL in series [6] (final concentration 0.1 mM); 0 CFU/mL in series [6] (final concentration 1 mM); 0 CFU/mL in series [6] (final concentration 10 mM). For the same compound, the CFU relative value in series [6] (final concentration 0.001 mM) stood at 105; in series [6] (final concentration 0.01 mM) it was 103; in series [6] (final concentration 0.1 mM), 50; in [6] (final concentration 1 mM) it was 0; in series [6] (final concentration 10 mM), 0. The Number of colonies in [6] (final concentration 0.001 mM, room temperature 15 minutes (0 mM: 303)) amounted to 319; in series [6] (final concentration 0.01 mM, room temperature 15 minutes), 313; in series [6] (final concentration 0.1 mM, room temperature 15 minutes), 151; in [6] (final concentration 1 mM, room temperature 15 minutes), 0; in series [6] (final concentration 10 mM, room temperature 15 minutes), 0. This compound came in with a sterilization effect in [6] (final concentration 1 mM or more) not below 99%. The “shift of fluorescence peak (binding amount between spike protein and ACE2)” value in [7] was “shifted to the left depending on the amount of AZADO-Oxo added”.
As to 1,3-dimethyl AZADO, the “standard redox potential (E^0@25° C.) between the nitroxyl radical form and the oxoammonium form” value in series [8] turned out to be 136 mV.
In the case of copper(II) nitrate, the viable cell ratio entry in [9] is recorded as “did not decrease to 0%”; in series [10], “did not decrease after 5 minutes from the addition”; in series [11], “started to increase after 5 minutes from the addition”.
For `O=[N+]([O-])[O-].[Ag+]` [silver nitrate, reference compound], the “cell viability (WST-8 method)” value in series [2] is on record as “such a phenomenon was not observed”.
`[O]N1C2CC3CC(C2)CC1C3` [AZADO, 2-azaadamantane-N-oxyl]: in [8], the “standard redox potential (E^0@25° C.) between the nitroxyl radical form and the oxoammonium form” value was 236 mV.
On the same count and under the same terms, the value for `CC1(C)CCCC(C)(C)N1[O]` [TEMPO, 2,2,6,6-tetramethylpiperidine-N-oxyl] was 294 mV; that for `CC12CC3CC(CC(C3)N1[O])C2` [1-methyl AZADO] was 186 mV.
